# Laboratory results as given in PubChem BioAssay (NCI).
#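 How tested: cells in 96-well plates exposed to compound for 48 hours at five concentrations. TGI marks complete inhibition of growth.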
# System: DU-145 prostate
# Test: NCI anticancer screen, dose series, 48 h
row,Structure (SMILES),TGI
1,CN1CCCC2C(c3ccccc3)C(C3=NCCCC3)C(c3ccccc3)CC21 (configuration not stated),> 100 µM

# System: T-47D breast
# Test: NCI anticancer screen, dose series, 48 h
row,Structure (SMILES),TGI
1,C[C@]12CC[C@H]3[C@@H](CCC4=CC(=O)CC[C@@H]43)[C@@H]1CC[C@]2(O)C(N)=O,> 100 µM
2,COC(=O)C1C2OC(C)(C)OC2CN1S(=O)(=O)c1ccc(C)cc1 (configuration not stated),> 100 µM
3,[O-][n+]1nc(N2CCOCC2)nc2ccccc21,> 100 µM
4,O=C1CSC(c2ccccc2)N1c1nc2cc3sc(N4C(=O)CSC4c4ccccc4)nc3cc2s1 (configuration not stated),> 100 µM
5,Cc1sc2nc(N(C)C)oc(=O)c2c1C,> 100 µM
6,Cc1nc(N)c(N2CCN(S(N)(=O)=O)CC2)c(=O)[nH]1,> 100 µM
7,CC(C)OC(=O)c1ccc(NCC2=CC(=O)C=CC2=O)cc1,7.95 µM
8,CC(C)C[C@H]1[C@@H](OCc2ccccc2)COS(=O)(=O)N1[C@H](C)c1ccccc1,39.7 µM
9,CN1CCC23c4c5ccc(Oc6nnnn6-c6ccccc6)c4OC2c2[nH]c4ccccc4c2CC3(O)C1C5 (configuration not stated),23.1 µM
10,COC(=O)c1ccccc1/C=C1\Cc2c(C)c3c(c(C)c2C1=O)CCC3,> 100 µM
11,O=C1c2ccccc2-c2nnc(-c3ccc([N+](=O)[O-])cc3)cc21,> 10 µM
12,Cn1c(-c2cccs2)cc(-c2cccs2)c1-c1cccs1,> 51.8 µM
13,COc1cc2c(/C=C3/C(=O)Nc4ccc(O)cc43)c(Cl)n(Cc3ccccc3)c2cc1C,> 74.8 µM
14,CCSc1nnc(Sc2c3ccccc3nc3ccccc23)s1,> 44.2 µM
15,O=C(CC(O)(C(F)(F)F)C(F)(F)F)C(c1ccccc1)C(O)(C(F)(F)F)C(F)(F)F (configuration not stated),> 100 µM
16,CCOC(=O)CC[C@H](N)C(=O)N[C@@H](Cc1ccc(N(CCCl)CCCl)cc1)C(=O)OCC,8.49 µM
17,CC(C)CCCC(C)[C@H]1CC[C@H]2n3c(nnc3-c3ccccc3)CCC[C@]12C (some centres not stated),37.4 µM
18,O=C(CSc1ncccn1)N/N=C/c1ccccc1OCc1ccccc1,70.7 µM
19,CN1CCCC2C(c3ccccc3)C(C3=NCCCC3)C(c3ccccc3)CC21 (configuration not stated),> 100 µM

# System: TK-10 renal
# Test: NCI anticancer screen, dose series, 48 h
row,Structure (SMILES),TGI
1,C[C@]12CC[C@H]3[C@@H](CCC4=CC(=O)CC[C@@H]43)[C@@H]1CC[C@]2(O)C(N)=O,> 100 µM
2,COC(=O)C1C2OC(C)(C)OC2CN1S(=O)(=O)c1ccc(C)cc1 (configuration not stated),> 100 µM
3,[O-][n+]1nc(N2CCOCC2)nc2ccccc21,> 100 µM
4,O=C1CSC(c2ccccc2)N1c1nc2cc3sc(N4C(=O)CSC4c4ccccc4)nc3cc2s1 (configuration not stated),> 100 µM
5,Cc1sc2nc(N(C)C)oc(=O)c2c1C,> 100 µM
6,Cc1nc(N)c(N2CCN(S(N)(=O)=O)CC2)c(=O)[nH]1,> 100 µM
7,CC(C)OC(=O)c1ccc(NCC2=CC(=O)C=CC2=O)cc1,28.6 µM
8,CC(C)C[C@H]1[C@@H](OCc2ccccc2)COS(=O)(=O)N1[C@H](C)c1ccccc1,> 100 µM
9,CN1CCC23c4c5ccc(Oc6nnnn6-c6ccccc6)c4OC2c2[nH]c4ccccc4c2CC3(O)C1C5 (configuration not stated),3.35 µM
10,COC(=O)c1ccccc1/C=C1\Cc2c(C)c3c(c(C)c2C1=O)CCC3,> 100 µM
11,O=C1c2ccccc2-c2nnc(-c3ccc([N+](=O)[O-])cc3)cc21,> 10 µM
12,Cn1c(-c2cccs2)cc(-c2cccs2)c1-c1cccs1,> 100 µM
13,COc1cc2c(/C=C3/C(=O)Nc4ccc(O)cc43)c(Cl)n(Cc3ccccc3)c2cc1C,> 40.7 µM
14,CCSc1nnc(Sc2c3ccccc3nc3ccccc23)s1,15.8 µM
15,O=C(CC(O)(C(F)(F)F)C(F)(F)F)C(c1ccccc1)C(O)(C(F)(F)F)C(F)(F)F (configuration not stated),> 100 µM
16,CCOC(=O)CC[C@H](N)C(=O)N[C@@H](Cc1ccc(N(CCCl)CCCl)cc1)C(=O)OCC,4.26 µM
17,CC(C)CCCC(C)[C@H]1CC[C@H]2n3c(nnc3-c3ccccc3)CCC[C@]12C (some centres not stated),57.2 µM
18,O=C(CSc1ncccn1)N/N=C/c1ccccc1OCc1ccccc1,62.4 µM
19,CN1CCCC2C(c3ccccc3)C(C3=NCCCC3)C(c3ccccc3)CC21 (configuration not stated),> 100 µM

# System: K-562 leukemia
# Test: NCI anticancer screen, dose series, 48 h
row,Structure (SMILES),TGI
1,C[C@]12CC[C@H]3[C@@H](CCC4=CC(=O)CC[C@@H]43)[C@@H]1CC[C@]2(O)C(N)=O,> 100 µM
2,COC(=O)C1C2OC(C)(C)OC2CN1S(=O)(=O)c1ccc(C)cc1 (configuration not stated),> 100 µM
3,[O-][n+]1nc(N2CCOCC2)nc2ccccc21,> 100 µM
4,O=C1CSC(c2ccccc2)N1c1nc2cc3sc(N4C(=O)CSC4c4ccccc4)nc3cc2s1 (configuration not stated),> 100 µM
5,Cc1sc2nc(N(C)C)oc(=O)c2c1C,> 100 µM
6,Cc1nc(N)c(N2CCN(S(N)(=O)=O)CC2)c(=O)[nH]1,> 100 µM
7,CC(C)OC(=O)c1ccc(NCC2=CC(=O)C=CC2=O)cc1,7.39 µM
8,CC(C)C[C@H]1[C@@H](OCc2ccccc2)COS(=O)(=O)N1[C@H](C)c1ccccc1,> 100 µM
9,CN1CCC23c4c5ccc(Oc6nnnn6-c6ccccc6)c4OC2c2[nH]c4ccccc4c2CC3(O)C1C5 (configuration not stated),3.86 µM
10,COC(=O)c1ccccc1/C=C1\Cc2c(C)c3c(c(C)c2C1=O)CCC3,> 100 µM
11,O=C1c2ccccc2-c2nnc(-c3ccc([N+](=O)[O-])cc3)cc21,> 10 µM
12,Cn1c(-c2cccs2)cc(-c2cccs2)c1-c1cccs1,> 100 µM
13,COc1cc2c(/C=C3/C(=O)Nc4ccc(O)cc43)c(Cl)n(Cc3ccccc3)c2cc1C,> 100 µM
14,CCSc1nnc(Sc2c3ccccc3nc3ccccc23)s1,> 100 µM
15,O=C(CC(O)(C(F)(F)F)C(F)(F)F)C(c1ccccc1)C(O)(C(F)(F)F)C(F)(F)F (configuration not stated),> 100 µM
16,CCOC(=O)CC[C@H](N)C(=O)N[C@@H](Cc1ccc(N(CCCl)CCCl)cc1)C(=O)OCC,> 33 µM
17,CC(C)CCCC(C)[C@H]1CC[C@H]2n3c(nnc3-c3ccccc3)CCC[C@]12C (some centres not stated),13.6 µM
18,O=C(CSc1ncccn1)N/N=C/c1ccccc1OCc1ccccc1,> 100 µM
19,CN1CCCC2C(c3ccccc3)C(C3=NCCCC3)C(c3ccccc3)CC21 (configuration not stated),37.6 µM

# System: SK-MEL-28 melanoma
# Test: NCI anticancer screen, dose series, 48 h
row,Structure (SMILES),TGI
1,C[C@]12CC[C@H]3[C@@H](CCC4=CC(=O)CC[C@@H]43)[C@@H]1CC[C@]2(O)C(N)=O,> 100 µM
2,COC(=O)C1C2OC(C)(C)OC2CN1S(=O)(=O)c1ccc(C)cc1 (configuration not stated),> 100 µM
3,[O-][n+]1nc(N2CCOCC2)nc2ccccc21,> 100 µM
4,O=C1CSC(c2ccccc2)N1c1nc2cc3sc(N4C(=O)CSC4c4ccccc4)nc3cc2s1 (configuration not stated),> 100 µM
5,Cc1sc2nc(N(C)C)oc(=O)c2c1C,> 100 µM
6,Cc1nc(N)c(N2CCN(S(N)(=O)=O)CC2)c(=O)[nH]1,> 100 µM
7,CC(C)OC(=O)c1ccc(NCC2=CC(=O)C=CC2=O)cc1,33 µM
8,CC(C)C[C@H]1[C@@H](OCc2ccccc2)COS(=O)(=O)N1[C@H](C)c1ccccc1,> 100 µM
9,CN1CCC23c4c5ccc(Oc6nnnn6-c6ccccc6)c4OC2c2[nH]c4ccccc4c2CC3(O)C1C5 (configuration not stated),4.73 µM
10,COC(=O)c1ccccc1/C=C1\Cc2c(C)c3c(c(C)c2C1=O)CCC3,> 100 µM
11,O=C1c2ccccc2-c2nnc(-c3ccc([N+](=O)[O-])cc3)cc21,> 10 µM
12,Cn1c(-c2cccs2)cc(-c2cccs2)c1-c1cccs1,> 100 µM
13,COc1cc2c(/C=C3/C(=O)Nc4ccc(O)cc43)c(Cl)n(Cc3ccccc3)c2cc1C,44.1 µM
14,CCSc1nnc(Sc2c3ccccc3nc3ccccc23)s1,> 59.1 µM
15,O=C(CC(O)(C(F)(F)F)C(F)(F)F)C(c1ccccc1)C(O)(C(F)(F)F)C(F)(F)F (configuration not stated),> 100 µM
16,CCOC(=O)CC[C@H](N)C(=O)N[C@@H](Cc1ccc(N(CCCl)CCCl)cc1)C(=O)OCC,2.38 µM
17,CC(C)CCCC(C)[C@H]1CC[C@H]2n3c(nnc3-c3ccccc3)CCC[C@]12C (some centres not stated),37.1 µM
18,O=C(CSc1ncccn1)N/N=C/c1ccccc1OCc1ccccc1,> 100 µM
19,CN1CCCC2C(c3ccccc3)C(C3=NCCCC3)C(c3ccccc3)CC21 (configuration not stated),36.2 µM
